pIC50: −log10 of the molar value.
Legend:
Assay type in all cases: cell-based
[1] = tested on: Human colon cancer cell HCT-116; assay: CCK-8 cell proliferation assay, HCT-116; details: HCT116 cells, 72 hrs with drug, CCK-8, OD 450 nm
Description: (§1) The effect of samples on the proliferation of human tumor cells in vitro was determined by CCK-8 cell proliferation assay.
(§2) The cells were assayed through a method including the following steps: • 1) The cells were digested, counted, and prepared into a cell suspension in a corresponding culture medium (Table 1) (5×10^4 cells/ml for CFPAC-1 and RPMI 8226, and 3.5×10^4 cells/ml for rest cells). The cell suspension was added to each well of a 96-well plate in 100 μl/well. • 2) Then the 96-well plate was incubated for 24 hrs in an incubator at 37° C. and 5% CO2. • 3) The drug was diluted with the culture medium to the required working concentration. 100 μl of the corresponding drug containing medium was added to each well.

[2] = tested on: Human pancreatic cancer cell CFPAC-1; assay: CCK-8 cell proliferation assay, CFPAC-1; details: CFPAC-1 cells, 72 hrs with drug, CCK-8, OD 450 nm
Description: as §1, §2

[3] = tested on: Human esophageal cancer cell TE-1; assay: CCK-8 cell proliferation assay, TE-1; details: TE-1 cells, 72 hrs with drug, CCK-8, OD 450 nm
Description: as §1, §2

[4] = tested on: Human hepatoma cell HepG2; assay: CCK-8 cell proliferation assay, HepG2; details: HepG2 cells, 72 hrs with drug, CCK-8, OD 450 nm
Description: as §1, §2

[5] = tested on: Human gastric cancer cell MKN45; assay: CCK-8 cell proliferation assay, MKN45; details: MKN-45 cells, 72 hrs with drug, CCK-8, OD 450 nm
Description: as §1, §2

[6] = tested on: Human multiple myeloma cell RPMI 8226; assay: CCK-8 cell proliferation assay, RPMI 8226; details: RPMI8226 cells, 72 hrs with drug, CCK-8, OD 450 nm
Description: as §1, §2

[7] = tested on: Human lung adenocarcinoma cell A549; assay: CCK-8 cell proliferation assay, A549; details: A549 cells, 72 hrs with drug, CCK-8, OD 450 nm
Description: as §1, §2

| Compound | pIC50 [1] | pIC50 [2] | pIC50 [3] | pIC50 [4] | pIC50 [5] | pIC50 [6] | pIC50 [7] |
| --- | --- | --- | --- | --- | --- | --- | --- |
| N#CN=C(NCCCCCN1CCN(C(=O)c2sccc2F)CC1)Nc1ccncc1 [BSS-PC025, 2-cyano-1-(5-(1-(3-fluoro-2-thienylformyl)piperazine-4-yl)pentyl)-3-(4-pyridinyl)guanidine] | 7.04 | 7.24 | 7.28 | 7.09 | 7.19 | 7.37 | 7.24 |
| N#CN=C(NCCCCCC1CCN(C(=O)c2cccs2)C1)Nc1ccncc1 (centres unmarked) [BSS-PC029, 2-cyano-1-(5-(1-(2-thienylformyl)pyrrolidine-3-yl)pentyl)-3-(4-pyridinyl)guanidine] | 7.28 | 7.47 | 7.18 | 7.19 | 7.44 | 7.72 | 7.46 |
| N#CN=C(NCCCCCN1CCN(C(=O)C2CCCO2)CC1)Nc1ccncc1 (centres unmarked) [BSS-PC011] | 7.31 | 7.41 | 7.33 | 7.28 | 7.21 | 7.38 | 7.40 |
| N#CN=C(NCCCCCC1CCN(C(=O)c2cc3ccccc3[nH]2)C1)Nc1ccncc1 (centres unmarked) [BSS-PC045, 2-cyano-1-(5-(1-(2-indolylformyl)pyrrolidine-3-yl)pentyl)-3-(4-pyridinyl)guanidine] | 7.07 | 7.19 | 7.05 | 6.93 | 7.24 | 7.28 | 7.10 |
| N#CN=C(NCCCCCN1CCN(C(=O)C2CCCN2)CC1)Nc1ccncc1 (centres unmarked) [BSS-PC010, 2-cyano-1-(5-(1-(2-pyrrolidinylformyl)piperazine-4-yl)pentyl)-3-(4-pyridinyl)guanidine] | 7.16 | 7.48 | 7.07 | 7.21 | 7.28 | 7.41 | 7.17 |
| N#CN=C(NCCCCCN1CCN(C(=O)C2Cc3ccccc3O2)CC1)Nc1ccncc1 (centres unmarked) [BSS-PC021, 2-cyano-1-(5-(1-(2-benzotetrahydrofurylfuryl)piperazine-4-yl)pentyl)-3-(4-pyridinyl)guanidine] | 6.97 | 7.26 | 6.93 | 7.03 | 7.19 | 7.31 | 7.10 |

Results, then the compound that gave them:

| pIC50 [1] | pIC50 [2] | pIC50 [3] | pIC50 [4] | pIC50 [5] | pIC50 [6] | pIC50 [7] | Compound |
| --- | --- | --- | --- | --- | --- | --- | --- |
| 7.04 | 7.43 | 6.95 | 7.00 | 7.41 | 7.70 | 7.43 | O=C(/C=C/c1cccnc1)NCCCCC1CCN(C(=O)c2ccccc2)CC1 [FK866, reference compound] |
| 7.41 | 7.48 | 7.40 | 7.38 | 7.51 | 7.57 | 7.29 | N#CN=C(NCCCCCC1CCN(C(=O)c2ccco2)C1)Nc1cccnc1 (centres unmarked) [BSS-PC051] |
| 7.14 | 7.21 | 6.97 | 6.82 | 7.19 | 7.31 | 7.12 | N#CN=C(NCCCCCCC1CCN(C(=O)c2cc3ccccc3[nH]2)C1)Nc1ccncc1 (centres unmarked) [BSS-PC071, 2-cyano-1-(6-(1-(2-indolylformyl)pyrrolidine-3-yl)hexyl)-3-(4-pyridinyl)guanidine] |
| 7.09 | 7.28 | 7.15 | 7.12 | 7.16 | 7.37 | 7.38 | N#CN=C(NCCCCCCC1CCN(C(=O)C2CCCS2)C1)Nc1ccncc1 (centres unmarked) [BSS-PC058, 2-cyano-1-(6-(1-(2-tetrahydrothienylformyl)pyrrolidine-3-yl)hexyl)-3-(4-pyridinyl)guanidine] |
| 7.07 | 7.34 | 7.00 | 7.04 | 7.33 | 7.46 | 7.37 | N#CN=C(NCCCCCCC1CCN(C(=O)c2ccccc2)C1)Nc1cccnc1 (centres unmarked) [BSS-PC059, 2-cyano-1-(6-((1-benzoyl)pyrrolidine-3-yl)hexyl)-3-(3-pyridinyl)guanidine] |
